In data set [1] the test system is A2780 ovarian cancer cells. The data set can be described thus: MTT reduction assay, 4 h, rapid toxicity, A2780. In kind it is cell-based. The settings on record: 4 h treatment; for Maximum Inhibition (%) A2780: MTT assay, tested 0.001694-33.3333 µM, ND = not detected or cannot be calculated. The protocol: (§1) The compounds were tested between 0.001694 and 33.3333 µM, using a 4-hour-long MTT test to assess rapid toxicity and a 48-hour-long SRB assay to assess the long-term effects of the inhibition of proliferation (cytostasis). The MTT assay assesses the activity of mitochondrial complex I and detects rapid, direct toxicity, as well as indicating apoptosis and necrosis. The SRB assay measures the total protein content that is proportional to cell numbers; therefore, the assay can detect changes in cell numbers and can thus be used as a readout for cell proliferation. The SRB assay was performed after 48 h of treatment (with the exception of L428 cells, which were tested for 96 h due to their slower proliferation rate). In this setting, the SRB assay informs us of long-term changes to cell proliferation. We assessed the maximal inhibition within that concentration range, and descriptive statistics were performed. We performed a one-way ANOVA, followed by the Kruskal–Wallis test, regardless of the normal or non-normal distribution of the data. Due to the large number of significance values, the results of the significance calculations are provided in an Excel spreadsheet at https://figshare.com/s/28d14597d5041f08eb08 (accessed on 6 January 2022), among other primary data of the study. Where possible, nonlinear regression was performed on the curves to determine the IC50 values ((inhibitor) vs. response—variable slope (four parameters) method with Graphpad v8.0.1). […] In Table 5, we added the IC50 values that we determined for a set of 4 active ruthenium half-sandwich complexes we identified previously, to be used in subsequent structure-activity relationship (SAR) analyses.
A2780 cells were cultured in RMPI 1640 medium, supplemented with 10% fetal calf serum, 2 mM glutamine, and 1% penicillin-streptomycin.
(§2) The MTT reduction assay measures the activity of mitochondrial complex I and can be used to detect apoptosis and necrosis. The assay was performed similarly to the method used in [72]. Briefly, cells were plated in 96-well plates the day before the assay. Cells were treated with the compounds for 4 h, then MTT was added at 0.5 mg/mL final concentration and the cells were incubated at 37 °C in a cell incubator. The culture media were removed and the reduced MTT dye was dissolved in dimethyl-sulfoxide (DMSO) and plates were measured in a plate photometer (Thermo Scientific Multiscan GO spectrophotometer, Waltham, MA, USA) at 540 nm. On each plate, wells were designed to contain untreated/vehicle-treated cells. In the calculations, the readings for these wells were considered as 1 and all readings were expressed relative to these values.

The subject of data set [2] is ID8 ovarian cancer cell line. The data set is described as follows: MTT reduction assay, 4 h, rapid toxicity, ID8. In kind it is cell-based. Particulars: 4 h treatment; for Maximum Inhibition (%) ID8: MTT assay, ND = not detected or cannot be calculated. The protocol:
as §1
ID8 cells were cultured in a high-glucose DMEM (4.5 g/L glucose) medium, supplemented with 4% fetal calf serum, 2 mM glutamine, 1% penicillin-streptomycin, and 1% ITS supplement (I3146).
as §2

Data set [3] deals with L428, a Hodgkin's lymphoma cell line. The data set is described as follows: Cytostasis assay, 96 h, L428. The data set is classed as cell-based. Particulars: for cytostatic activity on L428 cells (in words): 96 h; for L428 Max. Inh. (%): 96 h treatment, ND = not detected. The protocol: as §1
We turned next to assessing whether the cytostatic activity of Os-3, Os-4, Os-5, Os-6 and Ir-6 complexes is specific for ovarian cancer cell lines or if they may be active on other cell lines. To that end, we tested the complexes on another carcinoma cell line (Capan2, a pancreatic adenocarcinoma cell line), on a sarcoma cell line (Saos, an osteosarcoma cell line) and on a lymphoma cell line (L428, a Hodgkin’s lymphoma cell line).
L428 cells were maintained in RPMI 1640 medium, supplemented with 10% fetal calf serum, 2 mM glutamine, and 1% penicillin-streptomycin.
The assay was performed similarly to the method used in [73]. Cells were seeded in 96-well plates the day before the assay. Cells were treated with the compounds for 48 h, with the exception of L428, where 96 h of treatment was applied. Cells were fixed with 10% trichloroacetic acid (TCA). Fixed cells were washed in distilled water 3 times, followed by staining with SRB (0.4 m/V% dissolved in 1% acetic acid) for 10 min. The stained cells were washed in 1% acetic acid 5 times; the acetic acid was removed, and the cells were left to dry. Protein-bound SRB was released by adding 100 µL 10 mM Tris base. Plates were measured in a plate photometer (Thermo Scientific Multiscan GO spectrophotometer, Waltham, MA, USA) at 540 nm. On each plate, wells were designed to contain untreated cells. In calculations, the readings for these wells were considered as 1 and all readings were expressed relative to these values.
Here, 1.5 × 10^3 Capan2, 3 × 10^3 Saos cells and 10^4 L428 cells were plated onto 96-well plates. Capan2 and Saos cells were treated with the compounds in the concentrations indicated for 48 h for an SRB assay. L428 cells were treated with the compounds in the concentrations indicated for 96 h, then cells were counted using conventional microscopy and a Burker chamber. Data are represented as average ± SD, from three biological replicates; individual assays were performed in duplicate. Values were normalized for vehicle-treated cells; the absorbance for vehicle-treated cells is equal to 1. A one-way ANOVA, followed by a Kruskal–Wallis test, was performed individually for each compound. […]

A short description of data set [4]: Determination of the distribution coefficients (logD), n-octanol/PBS. In kind it is physicochemical. Particulars: n-octanol / PBS pH = 7.40, rt. The procedure:
Before starting the experiments, n-octanol was saturated with an aqueous PBS solution (pH = 7.40) and vice versa. A solution of the appropriate complex (approximately 0.2–0.3 mg) in a mixture of 2.50 mL pre-saturated n-octanol and 2.50 mL pre-saturated PBS buffer was made, and the resulting mixture was then vigorously stirred for 3 days at rt. Based on our previous NMR stability experiments, this time is long enough to reach equilibrium among the various ionic complex species. Due to the lipophilic/hydrophilic features of the complexes, those with benzoyl protection could primarily be found in the n-octanol, while the complexes with O-peracetylated and O-deprotected ligands were in the aqueous PBS phase. The corresponding separated solution was centrifuged (ScanSpeed 406G instrument, 4000 RPM for 5 min) and the absorption of the ”stock solution” was determined (VWR UV-1600PC Spectrophotometer, 270–420 nm). Then, 2.00 mL of the stock solution was vigorously stirred with 16.00 mL of pre-saturated n-octanol or PBS solution. After one day had passed, the phases were separated, centrifuged, and the absorption of the solution was measured again. From the absorption difference of the stock solutions, the distribution coefficient (D) was determined using previously described formulae [71].

SMILES strings stand for the structures.

Data on five compounds can be found in publication PMC8776094, “Reactive Oxygen Species Production Is Responsible for Antineoplastic Activity of Osmium, Ruthenium, Iridium and Rhodium Half-Sandwich Type Complexes with Bidentate Glycosyl Heterocyclic Ligands in Various Cancer Cell Models” (International Journal of Molecular Sciences, 2022).

Broadly, the LogD is the decadic logarithm of the distribution of all forms, ionised or not, between an organic phase and buffer at a given pH.

For `Cc1c(C)c(C)[c-](C)c1C.F[P-](F)(F)(F)(F)F.O=C(OCC1OC(n2cc(-c3ccccn3)nn2)C(OC(=O)c2ccccc2)C(OC(=O)c2ccccc2)C1OC(=O)c1ccccc1)c1ccccc1.[Cl][Ir+2]` (mixture of isomers) [Ir-6], in data set [1], the “toxicity on A2780 cells in short-term MTT assay (in words)” value is on record as “exerted toxicity in higher concentrations” and the “Maximum Inhibition (%) A2780” value is reported as 43.07%. Also, in data set [2], the “cytotoxicity on ID8 cells, MTT assay (in words)” value (“cytotoxicity on ID8 cells” below) is “mild cytotoxicity” and the “Maximum Inhibition (%) ID8” value is on record as 62.71%. In data set [3], the “cytostatic activity on L428 cells (in words)” value (from here on “cytostatic activity”) is given as “active on all cell lines” and the “L428 Max. Inh. (%)” value is on record as 100%. This compound also returned a LogD in data set [4] of 2.36.
Regarding `Cc1ccc(C(C)C)cc1.F[P-](F)(F)(F)(F)F.O=C(OCC1OC(c2nnc(-c3ccccn3)o2)C(OC(=O)c2ccccc2)C(OC(=O)c2ccccc2)C1OC(=O)c1ccccc1)c1ccccc1.[Cl][Os+]` (mixture of isomers) [Os-3], in data set [1], the “Maximum Inhibition (%) A2780” value is listed as 37.42%. In data set [2], the “cytotoxicity on ID8 cells” value is “cytotoxic capacity to a greater extent than on A2780 cells” and the “Maximum Inhibition (%) ID8” value is reported as 35.24%. In data set [3], the “cytostatic activity” value is listed as “active on all cell lines” and the “L428 Max. Inh. (%)” value was determined as 100%. In addition, the LogD in data set [4] is given as 3.32.
As for `Cc1ccc(C(C)C)cc1.F[P-](F)(F)(F)(F)F.O=C(OCC1OC(c2nnc(-c3ccccn3)o2)C(OC(=O)c2ccccc2)C(OC(=O)c2ccccc2)C1OC(=O)c1ccccc1)c1ccccc1.[Cl][Os+]` (mixture of isomers) [Os-4], in data set [1], the “Maximum Inhibition (%) A2780” value is recorded as 26.67%. The “Maximum Inhibition (%) ID8” value in data set [2] is reported as 22.91%. In addition, in data set [3], the “cytostatic activity” value is recorded as “active on all cell lines” and the “L428 Max. Inh. (%)” value is 100%. The compound also showed a LogD in data set [4] of 2.87.
For `Cc1ccc(C(C)C)cc1.F[P-](F)(F)(F)(F)F.O=C(OC1COC(c2nnc(-c3ccccn3)o2)C(OC(=O)c2ccccc2)C1OC(=O)c1ccccc1)c1ccccc1.[Cl][Os+]` (mixture of isomers) [Os-5], the “Maximum Inhibition (%) A2780” value in data set [1] is 31.38%. Further, in data set [2], the “cytotoxicity on ID8 cells” value is listed as “cytotoxic capacity to a greater extent than on A2780 cells” and the “Maximum Inhibition (%) ID8” value is reported as 59.51%. Further, in data set [3], the “cytostatic activity” value is recorded as “active on all cell lines” and the “L428 Max. Inh. (%)” value stood at 100%. This compound yielded a LogD in data set [4] of 2.36.
On to `Cc1ccc(C(C)C)cc1.F[P-](F)(F)(F)(F)F.O=C(OCC1OC(n2cc(-c3ccccn3)nn2)C(OC(=O)c2ccccc2)C(OC(=O)c2ccccc2)C1OC(=O)c1ccccc1)c1ccccc1.[Cl][Os+]` (mixture of isomers) [Os-6], for which the “Maximum Inhibition (%) A2780” value in data set [1] is listed as 21.38%. Moreover, in data set [2], the “cytotoxicity on ID8 cells” value is on record as “cytotoxic capacity to a greater extent than on A2780 cells” and the “Maximum Inhibition (%) ID8” value is 64.44%. In data set [3], the “cytostatic activity” value is given as “active on all cell lines” and the “L428 Max. Inh. (%)” value was 100%. In data set [4], the LogD turned out to be 2.33.
